According to publication PMC11941218, “Juglone-Bearing Thiopyrano[2,3-d]thiazoles Induce Apoptosis in Colorectal Adenocarcinoma Cells” (Cells, 2025):
pIC50: −log10 of the molar value.

How the values were obtained:
caspase 10 = test: Caspase 10 activity assay (FAM-FLICA, flow cytometry) in HT-29 cells; type: cell-based, human; settings: HT-29, 24 h; Les-6547 5 μM, Les-6557 10 μM
Procedure: Caspase activity for initiator caspases (8, 9, and 10) and executioner caspases (3/7) was evaluated using a FAM-FLICA® Caspase Assay kit (ImmunoChemistry Technologies, Bloomington, MN, USA) according to the manufacturer’s instructions, as described in previous studies. HT-29 cells were exposed to Les-6547 (5 µM) and Les-6557 (10 µM) for 24 h. Following this, the cells were harvested, washed twice with cold PBS, and resuspended in Apoptosis Wash Buffer (ImmunoChemistry Technologies, Bloomington, MN, USA) at a final concentration of 5 × 10^5 cells/mL.
Subsequently, 290 µL of the cell suspension was transferred into individual tubes, to which 10 µL of freshly prepared FLICA solution (1:5 dilution in PBS) was added. The mixture was gently pipetted and incubated for 1 h at 37 °C in the dark. After the incubation, the cells were washed twice with 2 mL of Apoptosis Wash Buffer, centrifuged, and resuspended in 300 µL of the same buffer. The prepared samples were immediately analyzed using a BD FACSCanto II flow cytometer (10,000 events). Data were processed using FACSDiva 6.1.3 software (BD Biosciences Systems, San Jose, CA, USA). Flow cytometer calibration was conducted using a BD Cytometer Setup and Tracking Beads (BD Biosciences, San Diego, CA, USA).

[1] = tested on: HT-29 colorectal adenocarcinoma cells; test: Mitochondrial membrane potential assay (JC-1, flow cytometry); type: cell-based, human; settings: HT-29, JC-1, 24 h; Les-6547 5 μM, Les-6557 10 μM
Procedure: The disruption of mitochondrial membrane potential (MMP) was assessed using the JC-1 MitoScreen kit and a BD FACSCanto II flow cytometer, following the instructions provided and previously described protocols.
HT-29 cells were exposed to Les-6547 (5 µM) and Les-6557 (10 µM) for 24 h. After the treatment, the cells were washed and resuspended in 0.5 mL of buffer containing 10 μg/mL JC-1, followed by incubation for 15 min at room temperature, shielded from light.
Then, the cells were washed twice with buffer, resuspended in 300 μL of PBS, and analyzed for mitochondrial membrane potential disruption.

[2] = tested on: HT-29 colorectal adenocarcinoma cells; test: Cell cycle analysis (PI, flow cytometry); type: cell-based, human; settings: HT-29, 24 h; Les-6547 5 μM, Les-6557 10 μM
Procedure: Cell cycle analysis of HT-29 cells treated with Les-6547 (5 µM) and Les-6557 (10 µM) for 24 h was conducted utilizing a FACSCanto II flow cytometer. Following the incubation period, the cells were detached using trypsin, collected, and fixed in cold ethanol (70%) before being stored at −20 °C for up to three days. Cells were then processed for flow cytometry analysis as previously described. Fixed cells were washed with cold PBS and centrifuged at 2000 rpm for 10 min, and the supernatant was discarded. The cell pellet was resuspended in PBS with 50 μg/mL DNase-free RNase A Solution and stained with 100 μg/mL PI for 30 min at 37 °C in the dark. After washing, the cells were resuspended in PBS. Cell cycle distribution was analyzed using a BD FACSCanto II flow cytometer (10,000 events) and FACSDiva 6.1.3 software (both BD Biosciences Systems, San Jose, CA, USA), followed by analysis with FCS Express 7 software (De Novo Software, Pasadena, CA, USA). The system was calibrated using a BD Cytometer Setup and Tracking Beads (BD Biosciences, San Diego, CA, USA).

[3] = tested on: HT-29 colorectal adenocarcinoma cells; test: Intracellular total ROS activity assay (flow cytometry); type: cell-based, human; settings: HT-29, 24 h; control 3.8%
Procedure: Total reactive oxygen species (ROS) activity was assessed using an Intracellular Total ROS Activity Assay Kit. Following 24 h incubation with studied derivatives, HT-29 cells were prepared for analysis with the flow cytometer according to the protocol detailed in the literature. The cells were washed twice with cold PBS, followed by the addition of the assay buffer provided in the kit. The cells, at a concentration of 1 × 10⁶ cells/mL, were then exposed to 10 µL of Total ROS Green reagent and incubated for one hour at 37 °C in a CO2 incubator. After the incubation period, the cells were rinsed with the assay buffer. Finally, the cells were resuspended in 500 µL of assay buffer and analyzed using a BD FACSCanto II flow cytometer in conjunction with FACSDiva 6.1.3 software (both BD Biosciences Systems, San Jose, CA, USA). The BD Cytometer Setup and Tracking Beads (BD Biosciences, San Diego, CA, USA) were used for calibration.

Human blood lymphocytes = test: MTT assay; type: cell-based; settings: for pIC50: Lymphocyte, human blood lymphocytes, 72 h, M ± SD, n = 3; for decrease of viability compared to control cells: lymphocytes from a healthy donor, 100 µM
Procedure: Lymphocytes from human peripheral blood were isolated with sodium heparin (10 U/mL) as an anticoagulant. Isolation was performed through a density gradient method with the Gradisol G, following a modified procedure. Peripheral blood was mixed with Gradisol G in equal proportions (1:1) and centrifuged at 400× g for 30 min at room temperature. The cells were collected, washed in phosphate-buffered saline (PBS), and treated with a hypotonic solution to remove residual erythrocytes. Lymphocytes were activated by phytohemagglutinin-L (1 µg/mL) and cultured in RPMI-1640 medium supplemented with 20% fetal bovine serum under controlled conditions of 95% air and 5% CO2 [27].
The metabolic activity of cells exposed to the tested derivatives, doxorubicin, and DMSO, was assessed using an MTT assay according to the manufacturer’s protocol (Sigma-Aldrich, St. Louis, MO, USA). Adherent cells were seeded into 96-well plates (5000–10,000 cells in 100 µL of growth medium per well) and allowed to adhere overnight before treatment. For lymphocytes, activation with phytohemagglutinin-L (1 µg/mL) was performed for 24 h, after which they were seeded in 96-well plates at a density of 100,000 cells/well in RPMI-1640 medium supplemented with 20% FBS. The test substances, including Les-6547, Les-6557, and doxorubicin, were added to 100 µL of culture medium to achieve final concentrations of 0 µM, 0.1 µM, 1 µM, 2.5 µM, 10 µM, and 100 µM for all compounds, and the cells were further incubated for 24, 48, or 72 h. DMSO-treated cells served as the control. Then, 20 µL of MTT solution (5 mg/mL) was added and incubated for 2–4 h to allow formazan crystal formation. The formazan crystals were then solubilized by adding DMSO. The absorbance of formazan was measured at 570 nm using a ThermoScientific Evolution 201 UV-VIS spectrophotometer (ThermoFisher Scientific, Waltham, MA, USA). The control condition with 0.5% DMSO was considered 100% viability. The IC50 values for the compounds were determined using GraphPad Prism 8 and 9 software (GraphPad Software, Boston, MA, USA).

Row | SMILES | Cells with active caspase 10 (caspase 10) [%] | Cells with decreased ΔΨm [1] [%] | Cells with normal ΔΨm [1] [%] | cells in G1 phase [2] [%] | cells in G2/M phase [2] [%] | cells in S phase [2] [%] | increase of the number of ROS-positive cells compared with the control cells [3] | pIC50 (Human blood lymphocytes) | decrease of viability compared to control cells (Human blood lymphocytes) [%]
1 | O=C1C2=C(C(=O)c3c(O)cccc31)C(c1ccc(Cl)cc1)c1sc(=O)[nH]c1S2 (centres unmarked) [Les-6557] | 40.9 | 32.9 | 68.5 | 19.2 | 28.8 | 51.3 | approximately 10 fold | < 4.00 | 25
2 | O=C1C2=C(C(=O)c3c(O)cccc31)C(c1cc(Cl)ccc1O)c1sc(=O)[nH]c1S2 (centres unmarked) [Les-6547] | – | 30.8 | 70.4 | 25.4 | 39.9 | 34.7 | approximately 10 fold | < 4.00 | 25
